Measured values published in ChEMBL document CHEMBL3045522, “Responses of dry beans (Phaseolus vulgaris L.) to sulfentrazone” (Crop Prot, 2007).

What was measured:
Format in all cases: organism-based
Phaseolus vulgaris [1] = experiment: Phytotoxicity against Phaseolus vulgaris (White dry bean) assessed as visual crop injury relative to control; conditions: in vivo
Phaseolus vulgaris [2] = experiment: Phytotoxicity against Phaseolus vulgaris (Kidney) dry bean assessed as visual crop injury relative to control; conditions: in vivo
Phaseolus vulgaris [3] = experiment: Phytotoxicity against Phaseolus vulgaris (White dry bean) assessed as reduction in plant height applied pre-emergence relative to control; set-up: scale not given: the % may be the effect or the level left; conditions: in vivo
Phaseolus vulgaris [4] = experiment: Phytotoxicity against Phaseolus vulgaris (White dry bean) assessed as visual crop injury applied pre-emergence relative to control; conditions: in vivo
Phaseolus vulgaris [5] = experiment: Phytotoxicity against Phaseolus vulgaris (Cranberry dry bean) assessed as visual crop injury applied pre-emergence relative to control; conditions: in vivo
Phaseolus vulgaris [6] = experiment: Phytotoxicity against Phaseolus vulgaris (Black dry bean) assessed as reduction in plant height applied pre-emergence relative to control; set-up: scale not given: the % may be the effect or the level left; conditions: in vivo
Phaseolus vulgaris [7] = experiment: Phytotoxicity against Phaseolus vulgaris (Kidney dry bean) assessed as visual crop injury applied […] relative to control; conditions: in vivo
Phaseolus vulgaris [8] = experiment: Phytotoxicity against Phaseolus vulgaris (Pink dry bean) assessed as visual crop injury applied post-emergence relative to control; conditions: in vivo
Phaseolus vulgaris [9] = experiment: Phytotoxicity against Phaseolus vulgaris (White dry bean) assessed as visual crop injury applied post-emergence relative to control; conditions: in vivo, other
Phaseolus vulgaris [10] = experiment: Phytotoxicity against Phaseolus vulgaris (Yellow eye dry bean) assessed as reduction in shoot dry weight applied pre-emergence relative to control; set-up: scale not given: the % may be the effect or the level left; conditions: in vivo
Phaseolus vulgaris [11] = experiment: Phytotoxicity against Phaseolus vulgaris (Pinto dry bean) assessed as reduction in plant height applied pre-emergence relative to control; set-up: scale not given: the % may be the effect or the level left; conditions: in vivo
Phaseolus vulgaris [12] = experiment: Phytotoxicity against Phaseolus vulgaris (White dry bean) assessed as reduction in shoot dry weight applied pre-emergence relative to control; set-up: scale not given: the % may be the effect or the level left; conditions: in vivo
Phaseolus vulgaris [13] = experiment: Phytotoxicity against Phaseolus vulgaris (Otebo dry bean) assessed as reduction in shoot dry weight applied pre-emergence relative to control; set-up: scale not given: the % may be the effect or the level left; conditions: in vivo
Phaseolus vulgaris [14] = experiment: Phytotoxicity against Phaseolus vulgaris (Yellow eye dry bean) assessed as reduction in plant height applied pre-emergence relative to control; set-up: scale not given: the % may be the effect or the level left; conditions: in vivo
Phaseolus vulgaris [15] = experiment: Phytotoxicity against Phaseolus vulgaris (Pinto dry bean) assessed as reduction in shoot dry weight applied pre-emergence relative to control; set-up: scale not given: the % may be the effect or the level left; conditions: in vivo
Phaseolus vulgaris [16] = experiment: Phytotoxicity against Phaseolus vulgaris (Otebo dry bean) assessed as reduction in plant height applied pre-emergence relative to control; set-up: scale not given: the % may be the effect or the level left; conditions: in vivo
Phaseolus vulgaris [17] = experiment: Phytotoxicity against Phaseolus vulgaris (Black dry bean) assessed as reduction in shoot dry weight applied pre-emergence relative to control; set-up: scale not given: the % may be the effect or the level left; conditions: in vivo

SMILES | Activity (Phaseolus vulgaris [3]) [%] | Activity (Phaseolus vulgaris [4]) [%] | Activity (Phaseolus vulgaris [5]) [%] | Activity (Phaseolus vulgaris [6]) [%] | Activity (Phaseolus vulgaris [7]) [%] | Activity (Phaseolus vulgaris [17]) [%] | also measured
CCc1cccc(CC)c1N(COC)C(=O)CCl [ALACHLOR] |  |  |  |  |  |  | Activity (Phaseolus vulgaris [1]): 5.6%; Activity (Phaseolus vulgaris [2]): 0.5%
C#CCN1C(=O)COc2cc(F)c(N3C(=O)C4=C(CCCC4)C3=O)cc21 [FLUMIOXAZIN] | 28 | 17 | 4 | 23 |  |  | 
CS(=O)(=O)NC(=O)c1cc(Oc2ccc(C(F)(F)F)cc2Cl)ccc1[N+](=O)[O-] [FOMESAFEN] |  |  |  |  | 1.4 |  | Activity (Phaseolus vulgaris [8]): 5%
CCc1cnc(C2=NC(C)(C(C)C)C(=O)N2)c(C(=O)O)c1 (stereo not given) [IMAZETHAPYR] | 40 |  |  | 40 | 1.8 |  | Activity (Phaseolus vulgaris [9]): 11%
CON(C)C(=O)Nc1ccc(Cl)c(Cl)c1 [LINURON] | 24 | 49 | 4 | 24 |  | 26 | Activity (Phaseolus vulgaris [10]): 26%; Activity (Phaseolus vulgaris [11]): 24%; Activity (Phaseolus vulgaris [12]): 26%; Activity (Phaseolus vulgaris [13]): 26%; Activity (Phaseolus vulgaris [14]): 24%; Activity (Phaseolus vulgaris [15]): 26%; Activity (Phaseolus vulgaris [16]): 24%
CCc1cccc(C)c1N(C(=O)CCl)[C@@H](C)COC [S-METOLACHLOR] |  |  |  |  |  | 16 | 
